Data published in article PMC9898759, “The Saccharomyces cerevisiae Yta7 ATPase hexamer contains a unique bromodomain tier that functions in nucleosome disassembly” (The Journal of Biological Chemistry, 2022).

Experiments:
[1] = test system: Yta7; assay: AlphaScreen binding of biotinylated H3 N-tail peptide (unmodified or acetylated) to full-length Yta7; set-up: species or system Saccharomyces cerevisiae; conditions: for binding to Yta7: 50 nM 10xHis-3xFlag-Yta7, 50 nM biotinylated H3 (1–22 amino acid) peptide, 50 mM Mops pH 7.4, 100 mM NaCl, BSA 0.1 mg/ml, on ice 1.5 h
Procedure: (§1) We performed AlphaScreen assays using a 6xHis detection kit (PerkinElmer). The biotinylated unmodified and the all-four-lysine acetylated H3 peptide (1–22 amino acids) were synthesized by GenScript. We individually mixed the purified 50 nM 10xHis-3xFlag-Yta7, 10xHis-3xFlag-Yta7ΔBRD, 10xHis-3xFlag-Yta7ΔBIMΔBRD, 6xHis-MBP-BIM, 6xHis-MBP-BRD, and the complex of 6xHis-MBP-BRD and MBP-BIM with 50 nM biotinylated and unmodified or acetylated H3 (1–22 amino acid) peptides, respectively, and incubated the mixtures on ice for 1.5 h with the streptavidin-coated donor beads (5 μg/ml) and nickel-chelated acceptor beads (5 μg/ml) in 50 mM Mops (pH 7.4), 100 mM NaCl, and bovine serum albumin (0.1 mg/ml). For nucleosome-binding assay, we used 50 nM 10xHis-3xFlag-Yta7 and 100 nM biotinylated human nucleosome. We incubated the mixture for 2 h on ice with the same concentration donor and acceptor beads. The donor beads contain a photosensitizer that converts ambient oxygen into short-lived singlet oxygen upon 680 nm light activation. When the acceptor beads are brought close enough to the donor beads by interaction between His-tagged proteins and biotinylated peptides, singlet oxygen can diffuse from the donor to the acceptor beads to transfer the energy to the thioxene derivatives of the acceptor beads, resulting in light emission at 520 to 620 nm range.

[2] = Malachite Green ATPase assay of Yta7; format: biochemical; conditions: Malachite Green phosphate assay, 2 mM ATP, 25 mM Hepes pH 7.6, 2 mM MgCl2, 150 mM KCl, 1 mM DTT, room temperature 1 h, A620; three independent experiments; Fig. S1C
Procedure: The Malachite Green Phosphate assay kit (Sigma–Aldrich) was used to measure the ATP hydrolysis rate of Yta7 present in different nucleotides. Yta7 was incubated in assay buffer (25 mM Hepes [pH 7.6], 2 mM MgCl2, 150 mM KCl, and 1 mM DTT) with or without histone-3 peptide (1–24 amino acids). Either 2 mM ATP or 2 mM ATPγS or 2 mM ADP (negative control) was added to initiate the reaction at room temperature for 1 h. Absorbance at 620 nm was measured in a Molecular Devices SpectraMax M2e microplate reader.

[3] = test system: complex of 6xHis-MBP-BRD and MBP-BIM; assay: AlphaScreen binding of H3 peptide to BRD and BIM together; set-up: species or system Saccharomyces cerevisiae
Procedure: as §1

[4] = test system: Yta7_ΔBRD; assay: AlphaScreen binding of H3 peptide to Yta7 lacking BRD; set-up: species or system Saccharomyces cerevisiae; conditions: 50 nM construct (954–1132 deleted), 50 nM biotinylated H3 (1–22), pH 7.4, on ice 1.5 h, n = 3, Fig. S9B
Procedure: as §1

[5] = test system: Yta7_ΔBIM ΔBRD; assay: AlphaScreen binding of H3 peptide to Yta7 lacking BIM and BRD; set-up: species or system Saccharomyces cerevisiae; conditions: 50 nM construct (320–350 and 954–1132 deleted), 50 nM biotinylated H3 (1–22), pH 7.4, on ice 1.5 h, n = 3, Fig. S9B
Procedure: as §1

[6] = test system: 6xHis-MBP-BIM; assay: AlphaScreen binding of H3 peptide to MBP-fused BIM; set-up: species or system Saccharomyces cerevisiae; conditions: n = 3, Fig. S9D
Procedure: as §1

[7] = AlphaScreen, three independent experiments in triplicate

24-residue H3 N-tail: unmodified H3 peptides (1–24 amino acids) (GenScript)
interaction with Yta7 (24-residue H3 N-tail) ([1]; 24-residue H3 N-tail, Fig. S1, C and D): interacted with

Yta7: full-length S. cerevisiae Yta7 AAA+ ATPase hexamer, 10xHis and 3xFLAG tagged
ATP hydrolysis [2]: hydrolyzed ATP

acetylated H3 peptide (1–22 amino acids): biotinylated all-four-lysine acetylated H3 peptide (1–22 amino acids), synthesized by GenScript
binding to Yta7 [1, 7]: bound Yta7

unmodified H3 peptide (1–22 amino acids)
binding to Yta7 [1, 7]: bound Yta7 | binding signal relative to the acetylated version ([1]; AlphaScreen, 50 nM Yta7, 50 nM biotinylated H3 (1–22) peptides, pH 7.4, on ice 1.5 h, means of three independent experiments performed in triplicate, Fig. 2H): five times stronger | affinity / binding in the presence of ADP or ATPγS ([1]; AlphaScreen, biotinylated H3 (1-22 aa), in the presence of ADP or ATPγS, three independent experiments in triplicate, Fig. S1E): unaffected | relative affinity, unmodified vs acetylated H3 peptide ([1]; AlphaScreen, unmodified compared with acetylated H3 (1–22) peptide, qualitative, listed as unmodified peptide): higher affinity | binding signal to BRD–BIM relative to Yta7 hexamer ([3]; BRD–BIM complex vs full-length Yta7 hexamer): an order of magnitude weaker | binding signal to BIM and BRD together relative to BRD alone ([3]; complex of 6xHis-MBP-BRD and MBP-BIM vs 6xHis-MBP-BRD, 50 nM biotinylated H3 (1–22), pH 7.4, n = 3, Fig. S9D): stronger than BRD alone | binding to Yta7_ΔBRD [4]: neither Yta7_ΔBRD nor Yta7_ΔBIM ΔBRD bind | binding to Yta7_ΔBIM ΔBRD [5]: neither Yta7_ΔBRD nor Yta7_ΔBIM ΔBRD bind | binding signal to BIM alone ([6]; 50 nM 6xHis-MBP-BIM, 50 nM biotinylated H3 (1–22), pH 7.4, on ice 1.5 h): weak binding signal | binding signal to BIM alone relative to MBP control and BRD alone ([6]; 6xHis-MBP negative control, compared with 6xHis-MBP-BRD): above the MBP control but weaker than BRD alone
